# Measured values as given in ChEMBL document CHEMBL1781918, “Quinazolin-4-piperidin-4-methyl sulfamide PC-1 inhibitors: alleviating hERG interactions through structure based design” (Bioorg Med Chem Lett, 2009).
# What was measured:
# [1] = biological target: Voltage-gated inwardly rectifying potassium channel KCNH2 (Homo sapiens, UniProt Q12809); assay: Displacement of [3H]-dofetilid from human ERG expressed in HEK293 cells; format: cell-based
# [2] = Selectivity for PC1 to human ERG channel
# [3] = biological target: T1, Ectonucleotide pyrophosphatase/phosphodiesterase family member 1 (Homo sapiens) (UniProt P22413); assay: Inhibition of PC1 by in vitro Kinase-Glo assay
# T1 sequence (whole entry): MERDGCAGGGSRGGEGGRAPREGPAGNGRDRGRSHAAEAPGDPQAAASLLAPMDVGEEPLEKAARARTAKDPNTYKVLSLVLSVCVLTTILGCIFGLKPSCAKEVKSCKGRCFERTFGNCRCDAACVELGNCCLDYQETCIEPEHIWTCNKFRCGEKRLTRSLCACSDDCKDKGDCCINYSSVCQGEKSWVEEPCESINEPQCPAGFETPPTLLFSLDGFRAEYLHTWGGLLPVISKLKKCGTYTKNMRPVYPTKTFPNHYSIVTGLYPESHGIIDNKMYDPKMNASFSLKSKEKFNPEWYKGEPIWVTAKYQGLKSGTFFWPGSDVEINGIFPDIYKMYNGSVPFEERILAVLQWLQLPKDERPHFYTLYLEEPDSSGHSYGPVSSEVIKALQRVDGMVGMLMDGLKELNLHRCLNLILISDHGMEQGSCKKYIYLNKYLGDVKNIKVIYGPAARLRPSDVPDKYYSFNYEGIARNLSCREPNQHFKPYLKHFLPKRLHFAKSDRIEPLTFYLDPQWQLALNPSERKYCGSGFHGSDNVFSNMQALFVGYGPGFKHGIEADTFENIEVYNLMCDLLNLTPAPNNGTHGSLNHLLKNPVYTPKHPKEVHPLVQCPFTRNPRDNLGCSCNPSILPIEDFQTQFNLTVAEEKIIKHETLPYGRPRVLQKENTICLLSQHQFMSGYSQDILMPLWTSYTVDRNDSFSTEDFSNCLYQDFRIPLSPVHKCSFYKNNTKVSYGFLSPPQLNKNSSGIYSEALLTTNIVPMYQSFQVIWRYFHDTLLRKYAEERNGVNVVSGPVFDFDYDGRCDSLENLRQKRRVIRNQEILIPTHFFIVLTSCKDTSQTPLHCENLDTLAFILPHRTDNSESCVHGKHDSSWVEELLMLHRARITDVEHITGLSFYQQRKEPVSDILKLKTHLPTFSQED
# Sequence of Voltage-gated inwardly rectifying potassium channel KCNH2 (Q12809 whole entry): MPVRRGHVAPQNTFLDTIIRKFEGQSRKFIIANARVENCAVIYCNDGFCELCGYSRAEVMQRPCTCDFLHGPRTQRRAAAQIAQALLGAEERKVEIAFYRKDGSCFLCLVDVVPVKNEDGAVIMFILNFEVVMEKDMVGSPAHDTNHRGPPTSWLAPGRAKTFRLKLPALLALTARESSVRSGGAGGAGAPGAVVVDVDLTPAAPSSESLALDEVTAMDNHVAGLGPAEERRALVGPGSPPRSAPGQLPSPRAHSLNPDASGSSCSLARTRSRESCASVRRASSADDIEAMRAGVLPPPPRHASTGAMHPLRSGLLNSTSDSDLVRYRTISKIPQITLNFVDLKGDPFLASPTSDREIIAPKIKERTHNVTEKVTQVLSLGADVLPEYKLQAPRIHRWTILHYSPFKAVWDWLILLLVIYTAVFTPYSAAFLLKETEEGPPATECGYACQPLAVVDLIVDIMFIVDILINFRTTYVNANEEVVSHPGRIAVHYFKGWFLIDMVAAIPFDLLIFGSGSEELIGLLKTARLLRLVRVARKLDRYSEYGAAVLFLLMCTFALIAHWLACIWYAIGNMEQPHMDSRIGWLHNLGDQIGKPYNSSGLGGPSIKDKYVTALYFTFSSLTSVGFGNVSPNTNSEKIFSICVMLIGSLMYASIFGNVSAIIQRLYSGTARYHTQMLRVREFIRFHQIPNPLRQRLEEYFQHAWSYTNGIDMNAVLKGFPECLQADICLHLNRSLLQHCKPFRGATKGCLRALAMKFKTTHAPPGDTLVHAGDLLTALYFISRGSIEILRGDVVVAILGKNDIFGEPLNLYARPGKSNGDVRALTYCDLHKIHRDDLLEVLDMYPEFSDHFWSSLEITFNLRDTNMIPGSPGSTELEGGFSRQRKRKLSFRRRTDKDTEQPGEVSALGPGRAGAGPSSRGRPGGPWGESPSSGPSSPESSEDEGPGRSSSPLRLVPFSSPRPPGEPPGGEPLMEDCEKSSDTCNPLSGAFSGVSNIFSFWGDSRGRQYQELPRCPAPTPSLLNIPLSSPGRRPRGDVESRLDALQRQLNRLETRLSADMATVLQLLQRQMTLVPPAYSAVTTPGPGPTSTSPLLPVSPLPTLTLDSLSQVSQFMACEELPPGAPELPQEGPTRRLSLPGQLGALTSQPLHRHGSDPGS
Ratio [2],INH [3] [µM],SMILES,INH [1] [µM]
> 60,0.166,COc1ccc2c(N3CCC(CNS(N)(=O)=O)CC3)ncnc2c1,> 10
–,0.214,CCc1nc(N2CCC(CCNS(N)(=O)=O)CC2)c2cc(OC)c(OC)cc2n1,–
> 160,0.061,COc1cc2ncnc(N3CCC(CNS(N)(=O)=O)CC3)c2cc1OC,> 10
52,0.063,COc1cc2nc(/C=C/c3cccnc3)nc(N3CCC(CNS(N)(=O)=O)CC3)c2cc1OC,3.296
8,0.0353,COc1cc2nc(/C=C/c3cccnc3)nc(N3CCC(CCNS(N)(=O)=O)CC3)c2cc1OC,0.276
1,0.187,COc1ccc2c(N3CCC(CCNS(N)(=O)=O)CC3)ncnc2c1,0.1202
–,> 10,NS(=O)(=O)NCCC1CCN(c2ncnc3cc(Cl)ccc23)CC1,3.4
–,> 10,Cc1nccn1-c1cc(N2CCC(CNS(N)(=O)=O)CC2)ncn1,> 10
> 16,0.6,Cc1nccn1-c1cc(N2CCC(CCNS(N)(=O)=O)CC2)ncn1,> 10
–,2.45,Cc1nccn1-c1nccc(N2CCC(CCNS(N)(=O)=O)CC2)n1,6.867
–,5.98,NS(=O)(=O)NCCC1CCN(c2ncnc3ccc(Cl)cc23)CC1,–
–,> 10,COc1cc2ncnc(N3CCC(NS(N)(=O)=O)CC3)c2cc1OC,> 10
17,0.0362,COc1cc2ncnc(N3CCC(CCNS(N)(=O)=O)CC3)c2cc1OC,0.601
